Experimental data reported in US10030016B2 (Sunesis Pharmaceuticals, Inc., priority 2009, dated 2018).
Like-named read-outs stand apart in the source and are kept apart here.

Columns and labels:
[1] = tested on: phospho-akt (Thr308) in PC-3 cells; experiment: Inhibition of phospho-akt (Thr308) in PC-3 cells, MSD phospho-akt 308 ELISA kit; format: cell-based; conditions: Homo sapiens, inhibition of P308 Akt in PC-3 cells, 2 hours, no serum, MSD, read-out: EC50
Procedure, shortened: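 PC-3 cells were seeded overnight in growth medium with 10% FBS, then exposed to compound serially diluted threefold in serum-free medium for 2 hours. Lysates were captured overnight at 4 degrees on MSD plates and phospho-Akt Thr308 was detected electrochemiluminescently, against DMSO high and 5 μM wortmannin low controls.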

[2] = target: PDK1 (Homo sapiens (Human), UniProt O15530); experiment: PDK1 kinase assay (coupled PDK1/AKT/FAM-crosstide assay, IMAP fluorescence polarization); format: biochemical; conditions: inhibition of phospo-PDK1 in vitro
Sequence of PDK1 (O15530 51-359): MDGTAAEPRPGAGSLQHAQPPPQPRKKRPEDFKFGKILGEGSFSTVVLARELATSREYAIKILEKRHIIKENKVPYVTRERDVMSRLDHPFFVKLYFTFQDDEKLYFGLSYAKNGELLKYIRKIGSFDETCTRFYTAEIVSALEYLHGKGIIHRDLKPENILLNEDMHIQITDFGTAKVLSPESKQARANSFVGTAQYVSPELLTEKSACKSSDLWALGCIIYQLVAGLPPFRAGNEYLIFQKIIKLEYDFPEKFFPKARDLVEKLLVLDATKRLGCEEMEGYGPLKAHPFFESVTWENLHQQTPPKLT
Procedure, shortened: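 GST-tagged human PDK1 (aa 51-359, 0.75 nM) from insect cells activated unphosphorylated GST-AKT2 (aa 140-467–PIFtide fusion, 10 nM), which phosphorylated 100 nM FAM-crosstide; 40 μM ATP, pH 7.2 Tris/MgCl2, 30 min at 25° C. IMAP fluorescence polarization read-out; ΔmP versus compound concentration fitted with a 4-parameter curve.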

SMILES	EC50 [1]	IC50 [2]	EC50 ([1]; PC-3, 2 h)
C[C@H](NC(=O)c1cccnc1NC/C=C/c1ccc2c(c1)NC(=O)/C2=C\c1cnc[nH]1)c1ccc(F)cc1 [Example 15.22, 2-((E)-3-((Z)-3-((1H-imidazol-5-yl)methylene)-2-oxoindolin-6-yl)allylamino)-N-((S)-1-(4-fluorophenyl)ethyl) nicotinamide]	< 1000 nM	< 100 nM	
O=C(NCc1ccc(F)c(F)c1)c1cccnc1N[C@@H](COc1ccc2[nH]c(=O)[nH]c2c1)c1ccccc1 [Example 16.1, (R)-N-(3,4-difluorobenzyl)-2-(2-(2-oxo-2,3-dihydro-1H-benzo[d]imidazol-5-yloxy)-1-phenylethylamino)nicotinamide]	< 1000 nM	< 100 nM	
O=C(NCc1ccc(F)c(F)c1)c1cc(C(F)(F)F)cnc1N[C@@H](COc1ccc2[nH]c(=O)[nH]c2c1)c1ccccc1 [Example 16.4, (R)-N-(3,4-difluorobenzyl)-2-(2-(2-oxo-2,3-dihydro-1H-benzo[d]imidazol-5-yloxy)-1-phenylethylamino)-5-(trifluoromethyl)nicotinamide]		1000 to 5000 nM	1000 to 10000 nM
C[C@H](NC(=O)c1cccnc1N[C@@H](COc1ccc([N+](=O)[O-])c(N)c1)c1cccc(Cl)c1)c1ccc(F)c(F)c1 [Example 16.7, 2-((R)-2-(3-amino-4-nitrophenoxy)-1-(3-chlorophenyl)ethylamino)-N-((S)-1-(3,4-difluorophenyl)ethyl)nicotinamide]	> 10000 nM	> 5000 nM	
COc1ccc([C@H](COc2ccc3[nH]c(=O)[nH]c3c2)Nc2ncccc2C(=O)N[C@@H](C)c2ccc(F)c(F)c2)cc1 [Example 16.8, N-((S)-1-(3,4-difluorophenyl)ethyl)-2-(((R)-1-(4-methoxyphenyl)-2-(2-oxo-2,3-dihydro-1H-benzo[d]imidazol-5-yloxy)ethyl)amino)nicotinamide]		1000 to 5000 nM	> 10000 nM
C[C@H](NC(=O)c1cccnc1N[C@@H](COc1ccc2[nH]c(=O)[nH]c2c1)c1cccc(Cl)c1)c1ccc(F)c(F)c1 [Example 16.9, 2-((R)-1-(3-chlorophenyl)-2-(2-oxo-2,3-dihydro-1H-benzo[d]imidazol-5-yloxy)ethylamino)-N-((S)-1-(3,4-difluorophenyl)ethyl)nicotinamide]	< 1000 nM	100 to 1000 nM	
C[C@H](NC(=O)c1cc(C#N)cnc1N[C@@H](COc1ccc2[nH]c(=O)[nH]c2c1)c1ccccc1)c1ccc(F)cc1 [Example 16.10]	< 1000 nM	100 to 1000 nM	
N#Cc1cnc(N[C@@H](COc2ccc3[nH]c(=O)[nH]c3c2)c2ccccc2)c(C(=O)NCc2ccc(F)cc2)n1 [Example 16.12, (R)-6-cyano-N-(4-fluorobenzyl)-3-(2-(2-oxo-2,3-dihydro-1H-benzo[d]imidazol-5-yloxy)-1-phenylethylamino) pyrazine-2-carboxamide]	< 1000 nM	< 100 nM	
C[C@H](NC(=O)c1cccnc1N[C@@H](COc1ccc2c(c1)[nH]c(=O)n2C)c1ccccc1)c1ccc(F)c(F)c1 [Example 16.13, N—((S)-1-(3,4-difluorophenyl)ethyl)-2-((R)-2-(1-methyl-2-oxo-2,3-dihydro-1H-benzo[d]imidazol-5-yloxy)-1-phenylethylamino)nicotinamide]	1000 to 10000 nM	< 100 nM	
Cc1ccc(Nc2ncccc2C(=O)NCc2ccc(F)c(F)c2)cc1-c1ccc2c(c1)CNC2=O [Example 17.2]	> 10000 nM	> 5000 nM	
C[C@H](NC(=O)c1cccnc1NCCOc1ccc2cc[nH]c2c1)c1ccc(F)c(F)c1 [Example 19.1, (S)-2-(2-(1H-indol-6-yloxy)ethylamino)-N-(1-(3,4-difluorophenyl)ethyl)nicotinamide]	> 10000 nM	> 5000 nM	
O=C(NCc1ccc(F)c(F)c1)c1cccnc1NCCOc1ccc2c(c1)[nH]c1ncccc12 [Example 21, 2-(2-(9H-pyrido[2,3-b]indol-7-yloxy)ethylamino)-N-(3,4-difluorobenzyl)nicotinamide]	1000 to 10000 nM	< 100 nM	

Other lines, results leading:

EC50 [1]	IC50 [2]	EC50 ([1]; PC-3, 2 h)	SMILES
1000 to 10000 nM	< 100 nM		O=C(NCc1ccc(F)c(F)c1)c1cccnc1NCCOc1ccc2[nH]c(=O)[nH]c2c1 [Example 16.2, N-(3,4-difluorobenzyl)-2-(2-(2-oxo-2,3-dihydro-1H-benzo[d]imidazol-5-yloxy)-ethylamino)nicotinamide]
1000 to 10000 nM	100 to 1000 nM		C[C@H](NC(=O)c1cccnc1N[C@@H](COc1ccc2[nH]c(=O)[nH]c2c1)c1ccccc1)c1ccc(F)c(F)c1 [Example 16.3]
1000 to 10000 nM	> 5000 nM		COc1ccc([C@H](COc2ccc([N+](=O)[O-])c(N)c2)Nc2ncccc2C(=O)N[C@@H](C)c2ccc(F)c(F)c2)cc1 [Example 16.5, 2-((R)-2-(3-amino-4-nitrophenoxy)-1-(4-methoxyphenyl)ethylamino)-N-((S)-1-(3,4-difluorophenyl)ethyl)nicotinamide]
> 10000 nM	> 5000 nM		COc1ccc([C@H](COc2ccc(N)c(N)c2)Nc2ncccc2C(=O)N[C@@H](C)c2ccc(F)c(F)c2)cc1 [Example 16.6, 2-((R)-2-(3,4-diaminophenoxy)-1-(4-methoxyphenyl)ethylamino)-N-((S)-1-(3,4-difluorophenyl)ethyl)nicotinamide]
< 1000 nM	< 100 nM		N#Cc1cnc(N[C@@H](COc2ccc3[nH]c(=O)[nH]c3c2)c2ccccc2)c(C(=O)NCc2ccc(F)c(F)c2)n1 [Example 16.11, (R)-6-cyano-N-(3,4-difluorobenzyl)-3-(2-(2-oxo-2,3-dihydro-1H-benzo[d]imidazol-5-yloxy)-1-phenylethylamino) pyrazine-2-carboxamide]
> 10000 nM	100 to 1000 nM		O=C(NCc1ccc(F)c(F)c1)c1cccnc1Nc1cccc(-c2cccc3c2CNC3=O)c1 [Example 17.1, N-(3,4-difluorobenzyl)-2-(3-(1-oxoisoindolin-4-yl)phenylamino)-nicotinamide]
> 10000 nM	100 to 1000 nM		O=C(NCc1ccc(F)c(F)c1)c1cccnc1Nc1cccc(-c2cccn3c(=O)[nH]nc23)c1 [Example 17.3]
1000 to 10000 nM	< 100 nM		O=C(NCc1ccc(F)c(F)c1)c1cccnc1NCc1cc(-c2c[nH]c3ncccc23)ccn1 [Example 18.1, 2-((4-(1H-pyrrolo[2,3-b]pyridin-3-yl)pyridin-2-ylmethyl)amino)-N-(3,4-difluorobenzyl)nicotinamide]
< 1000 nM	< 100 nM		C[C@H](NC(=O)c1cccnc1NCCOc1ccc2c(c1)NC(=O)/C2=C\c1cnc[nH]1)c1ccc(F)c(F)c1 [Example 19.2, (S,Z)-2-(2-(3-((1H-imidazol-5-yl)methylene)-2-oxoindolin-6-yloxy)ethylamino)-N-(1-(3,4-difluorophenyl)ethyl)nicotinamide]
< 1000 nM	< 100 nM		O=C1Nc2cc(OCCNc3ncccc3C(=O)NCc3ccc(F)c(F)c3)ccc2/C1=C/c1cnc[nH]1 [Example 22, (Z)-2-(2-(3-((1H-imidazol-5-yl)methylene)-2-oxoindolin-6-yloxy)ethylamino)-N-(3,4-difluorobenzyl)nicotinamide]
< 1000 nM	< 100 nM		O=C1Nc2cc(OCCNc3ncccc3C(=O)NCc3ccc(F)cc3)ccc2/C1=C/c1cnc[nH]1 [Example 23, (Z)-2-(2-(3-((1H-imidazol-5-yl)methylene)-2-oxoindolin-6-yloxy)ethylamino)-N-(4-fluorobenzyl)nicotinamide]
